Laboratory results as given in patent US20250179066A1, “ZWITTERIONIC ANTIBACTERIAL COMPOUNDS” (Hoffmann-La Roche Inc., priority 2022, published 2025).
Where a name gives a salt, the structure may show the parent alone.

Tested on: Acinetobacter baumannii ATCC17961
Experiment: Antimicrobial susceptibility testing: 90% growth inhibitory concentration (IC90) determination
Assay type: cell-based
Settings: Acinetobacter baumannii, ATCC17961, 16 h, 90% growth inhibitory concentration against Acinetobacter baumannii ATCC17961, Iso-Sensitest broth, OD 600 nm over 16 h; read-out: ATCC 17961 IC90
How it was run: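 Twofold serial dilutions (e.g. 10 to 0.0195 μM final) in Iso-Sensitest broth inoculated at ~5×10^5 CFU/mL, incubated at 35±2° C. OD600 read every minute for 16 h; IC90 is the concentration inhibiting 90% of growth during logarithmic phase.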

Q: With Cn1c(-c2cn(-c3ccc(O)cc3F)nc2C(F)(F)F)cnc1C(=O)Nc1ccc(C(=O)N2CCN(C(=O)[C@H]3CC[N@@+](CCCN)(CC(=O)O)CC3)CC2)c(F)c1 [Example 131, cis-2-[1-(3-aminopropyl)-4-[4-[2-fluoro-4-[[5-[1-(2-fluoro-4-hydroxy-phenyl)-3-(trifluoromethyl)pyrazol-4-yl]-1-methyl-imidazole-2-carbonyl]amino]benzoyl]piperazine-1-carbonyl]piperidin-1-ium-1-yl]acetic acid;formate] as the compound, how does the IC90 read?
A: 103 nM

Q: Cn1c(-c2cn(-c3ccc4[nH]c(CC(N)=O)cc4n3)nc2C(F)(F)F)cnc1C(=O)Nc1ccc(C(=O)N2CCN(C(=O)[C@H]3CC[N@+](CC(=O)O)(CC4CNC4)CC3)CC2)c(Cl)c1 [Example 167, cis-2-[4-[4-[4-[[5-[1-[2-(2-amino-2-oxo-ethyl)-1H-pyrrolo[3,2-b]pyridin-5-yl]-3-(trifluoromethyl)pyrazol-4-yl]-1-methyl-imidazole-2-carbonyl]amino]-2-chloro-benzoyl]piperazine-1-carbonyl]-1-(azetidin-3-ylmethyl)piperidin-1-ium-1-yl]acetic acid;2,2,2-trifluoroacetate] was tested. Which IC90 did it give?
A: 715 nM

Q: How did the IC90 turn out when Cn1c(-c2cn(-c3ccc4c(ccn4CC#N)n3)nc2C(F)(F)F)cnc1C(=O)Nc1ccc(C(=O)N2CCN(C(=O)[C@H]3CC[N@+](CC(=O)O)(CC4CNC4)CC3)CC2)c(Cl)c1 [Example 197, cis-2-[1-(azetidin-3-ylmethyl)-4-[4-[2-chloro-4-[[5-[1-[1-(cyanomethyl)pyrrolo[3,2-b]pyridin-5-yl]-3-(trifluoromethyl)pyrazol-4-yl]-1-methyl-imidazole-2-carbonyl]amino]benzoyl]piperazine-1-carbonyl]piperidin-1-ium-1-yl]acetic acid. 1:1 2,2,2-trifluoroacetate] was run?
A: 171 nM

Q: Which IC90 does the source give for CN(C)Cc1ccc(-n2cc(-c3cnc(C(=O)Nc4ccc(C(=O)N5CCN(C(=O)C6CC[N+](CC(=O)O)(CC7CNC7)CC6)CC5)c(Cl)c4)n3C)c(C(F)(F)F)n2)nc1 (stereo not drawn) [Example 84, 2-[1-(azetidin-3-ylmethyl)-4-[4-[2-chloro-4-[[5-[1-[5-[(dimethylamino)methyl]-2-pyridyl]-3-(trifluoromethyl)pyrazol-4-yl]-1-methyl-imidazole-2-carbonyl]amino]benzoyl]piperazine-1-carbonyl]piperidin-1-ium-1-yl]acetic acid. 1:1 formic acid. 1:1 formate] here?
A: 1280 nM

Q: Cn1c(-c2cn(-c3ccc(N)cc3F)nc2C(F)(F)F)cnc1C(=O)Nc1ccc(C(=O)N2CCN(C(=O)CCC[N+](CCCCN)(CCCCN)CC(=O)O)CC2)c(Cl)c1 [Example 11, bis(4-aminobutyl)-[4-[4-[4-[[5-[1-(4-amino-2-fluoro-phenyl)-3-(trifluoromethyl)pyrazol-4-yl]-1-methyl-imidazole-2-carbonyl]amino]-2-chloro-benzoyl]piperazino]-4-keto-butyl]-(carboxymethyl)ammonium. 1:1 2,2,2-trifluoroacetic acid. 1:1 2,2,2-trifluoroacetate] was tested. Which IC90 did it give?
A: 170 nM

Q: How did the IC90 turn out when Cn1c(-c2cn(-c3ccc4occc4n3)nc2C(F)(F)F)cnc1C(=O)Nc1ccc(C(=O)N2CCN(C(=O)C3CC[N+](CC(=O)O)(CC4CNC4)CC3)CC2)c(Cl)c1 (stereo not drawn) [Example 63, 2-[1-(azetidin-3-ylmethyl)-4-[4-[2-chloro-4-[[5-[1-furo[3,2-b]pyridin-5-yl-3-(trifluoromethyl)pyrazol-4-yl]-1-methyl-imidazole-2-carbonyl]amino]benzoyl]piperazine-1-carbonyl]piperidin-1-ium-1-yl]acetic acid. 1:1 2,2,2-trifluoroacetate] was run?
A: 680 nM

Q: For CC[C@@H]1CN(C(=O)C2CC[N+](CC(=O)O)(CC3CNC3)CC2)CCN1C(=O)c1ccc(NC(=O)c2ncc(-c3cn(-c4ccc(N)cn4)nc3C(F)(F)F)n2C)cc1Cl (stereo partly drawn) [Example 78, 2-[4-[(3R)-4-[4-[[5-[1-(5-amino-2-pyridyl)-3-(trifluoromethyl)pyrazol-4-yl]-1-methyl-imidazole-2-carbonyl]amino]-2-chloro-benzoyl]-3-ethyl-piperazine-1-carbonyl]-1-(azetidin-3-ylmethyl)piperidin-1-ium-1-yl]acetic acid. 1:1 formate], which IC90 is on record?
A: 1110 nM

Q: For Cn1c(-c2cn(-c3ccc4[nH]c(C[C@H](O)CO)cc4n3)nc2C(F)(F)F)cnc1C(=O)Nc1ccc(C(=O)N2CCN(C(=O)[C@H]3CC[N@+](CC(=O)O)(CC4CNC4)CC3)CC2)c(Cl)c1 [Example 160, cis-2-[1-(azetidin-3-ylmethyl)-4-[4-[2-chloro-4-[[5-[1-[2-[(2S)-2,3-dihydroxypropyl]-1H-pyrrolo[3,2-b]pyridin-5-yl]-3-(trifluoromethyl)pyrazol-4-yl]-1-methyl-imidazole-2-carbonyl]amino]benzoyl]piperazine-1-carbonyl]piperidin-1-ium-1-yl]acetic acid;formate], which IC90 is on record?
A: 474 nM

Q: Which IC90 does the source give for Cn1c(-c2cn(-c3ccc(NCCN)cn3)nc2C(F)(F)F)cnc1C(=O)Nc1ccc(C(=O)N2CCN(C(=O)CCC[N+](CCCCN)(CCCCN)CC(=O)O)CC2)c(Cl)c1 [Example 36, bis(4-aminobutyl)-[4-[4-[4-[[5-[1-[5-(2-aminoethylamino)-2-pyridyl]-3-(trifluoromethyl)pyrazol-4-yl]-1-methyl-imidazole-2-carbonyl]amino]-2-chloro-benzoyl]piperazino]-4-keto-butyl]-(carboxymethyl)ammonium. 1:2 2,2,2-trifluoroacetic acid. 1:1 2,2,2-trifluoroacetate] here?
A: 420 nM

Q: Cn1c(-c2cn(-c3ccc(N)cn3)nc2C(F)(F)F)cnc1C(=O)Nc1ccc(C(=O)N2CCN(C(=O)CCCN(CCCN)CC(=O)O)CC2)c(Cl)c1 [Example 72, 2-[3-aminopropyl-[4-[4-[4-[[5-[1-(5-amino-2-pyridyl)-3-(trifluoromethyl)pyrazol-4-yl]-1-methyl-imidazole-2-carbonyl]amino]-2-chloro-benzoyl]piperazino]-4-keto-butyl]amino]acetic acid. 1:1 2,2,2-trifluoroacetic acid] was tested. Which IC90 did it give?
A: 870 nM

Q: Which IC90 does the source give for Cn1c(-c2cn(-c3cc4c(ccn4CCO)cn3)nc2C(F)(F)F)cnc1C(=O)Nc1ccc(C(=O)N2CCN(C(=O)[C@H]3CC[N@+](CC(=O)O)(CC4CNC4)CC3)CC2)c(Cl)c1 [Example 174, cis-2-[1-(azetidin-3-ylmethyl)-4-[4-[2-chloro-4-[[5-[1-[1-(2-hydroxyethyl)pyrrolo[3,2-c]pyridin-6-yl]-3-(trifluoromethyl)pyrazol-4-yl]-1-methyl-imidazole-2-carbonyl]amino]benzoyl]piperazine-1-carbonyl]piperidin-1-ium-1-yl]acetic acid. 1:1 2,2,2-trifluoroacetate] here?
A: 430 nM

Q: How did the IC90 turn out when CNc1cc(-n2cc(-c3cnc(C(=O)Nc4ccc(C(=O)N5CCN(C(=O)C6CC[N+](CC(=O)O)(CC7CNC7)CC6)CC5)c(Cl)c4)n3C)c(C(F)(F)F)n2)ccn1 (stereo not drawn) [Example 88, 2-[1-(azetidin-3-ylmethyl)-4-[4-[2-chloro-4-[[1-methyl-5-[1-[2-(methylamino)-4-pyridyl]-3-(trifluoromethyl)pyrazol-4-yl]imidazole-2-carbonyl]amino]benzoyl]piperazine-1-carbonyl]piperidin-1-ium-1-yl]acetic acid. 1:1 2,2,2-trifluoroacetate] was run?
A: 1410 nM
